Measurements: patent US10059667B2, “Antidiabetic compounds” (MERCK SHARP & DOHME CORP., priority 2014, dated 2018)

Key:
Human GPR40 [1] = biological target: T1, Human GPR40 (Homo sapiens (Human), UniProt O14842); assay: FLIPR assay, agonist-induced calcium mobilization in GPR40/CHO NFAT BLA cells; assay type: cell-based
Experimental: (§1) Human and mouse GPR40 stable cell-lines were generated in CHO cells stably expressing NFAT BLA (Beta-lactamase). A human GPR40 stable cell-line was generated in HEK cells stably expressing the aequorin expressing reporter. The expression plasmids were transfected using lipofectamine (Life Technologies) following manufacturer's instructions. Stable cell-lines were generated following drug selection.
FLIPR (Fluorimetric Imaging Plate Reader, Molecular Devices) assays were performed to measure agonist-induced calcium mobilization of the stable clones. For the FLIPR assay, one day before assay, GPR40/CHO NFAT BLA cells were seeded into black-wall-clear-bottom 384-well plates (Costar) at 1.4×10e4 cells/20 μL medium/well. The cells were incubated with 20 μl/well of the assay buffer (HBSS, 0.1% BSA, 20 mM HEPES, 2.5 mM probenecid, pH 7.4) containing 8 μM fluo-4, AM, 0.08% pluronic acid at room temperature for 100 minutes. Fluorescence output was measured using FLIPR. Compounds were dissolved in DMSO and diluted to desired concentrations with assay buffer. 13.3 μL/well of compound solution was added.

Human GPR40 [2] = biological target: T1, Human GPR40; assay: Inositol Phosphate Turnover (IP1) Assay 1, HEK cells stably expressing human GPR40, 3H-inositol SPA; assay type: cell-based; conditions: HEK cells stably expressing human GPR40, 96-well
Experimental: as §1
The assay was performed in 96-well format. HEK cells stably expressing human GPR40 were plated to be 60-80% confluent within 72 h. After 72 h, the plates were aspirated and the cells washed with inositol-free DMEM (ICN). The wash media was replaced with 150 μL of 3H-inositol labeling media (inositol-free media containing 0.4% human albumin or 0.4% mouse albumin, 1× pen/strep antibiotics, glutamine, 25 mM HEPES to which was added 3H-myo-inositol NEN #NET114A 1 mCi/mL, 25 Ci/mmol diluted 1:150 in loading media with a final specific radioactivity of 1 μCi/150 μL). Alternatively, the human and mouse albumin can be added after the overnight labeling step before the addition of LiCl.
The assay was typically run the next day after 18 h labeling. On the day of the assay, 5 μL of 300 mM LiCl was added to all wells and incubated at 37 degrees for 20 min. 0.75 μL of each compound was added and incubated with the cells for 60 min at 37 degrees. The media was then aspirated off and the assay terminated with the addition of 60 μL 10 mM formic acid. The cells were lysed for 60 min at room temperature. 15-30 μL of lysate was mixed with 70 μL/1 mg YSi SPA beads (Amersham) in clear bottom Isoplates. The plates were shaken for 2 h at room temperature. Beads were allowed to settle and the plates were counted in the Wallac Microbeta.

T1 sequence (O14842 whole entry): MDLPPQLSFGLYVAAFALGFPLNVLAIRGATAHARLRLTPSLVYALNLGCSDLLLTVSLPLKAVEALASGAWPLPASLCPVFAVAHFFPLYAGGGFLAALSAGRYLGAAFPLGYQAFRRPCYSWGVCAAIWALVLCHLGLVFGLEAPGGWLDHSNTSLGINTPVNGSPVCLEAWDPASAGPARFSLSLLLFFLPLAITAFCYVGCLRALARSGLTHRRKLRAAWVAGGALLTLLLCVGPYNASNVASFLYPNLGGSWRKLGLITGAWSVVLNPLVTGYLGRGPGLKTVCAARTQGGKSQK

Row | SMILES | EC50 (Human GPR40 [1]) [nM] | EC50 (Human GPR40 [2]) [nM]
1 | COc1cccc(C2CC2COc2cccc([C@@H](CC(=O)O)C3CC3)c2)c1 (single isomer, unassigned) [Example 62, (3 S)-3-cyclopropyl-3-(3-((2-(3-methoxyphenyl)cyclopropyl)methoxy)phenyl)propanoic acid] | 5.7 | 166
2 | O=C(O)C[C@H](c1cccc(OCC2CN(Cc3ccccc3OC(F)(F)F)C2)c1)C1CC1 [Example 50] | 55 | 5030
3 | Cc1ccc(C(F)(F)F)cc1C(C)N1CC(COc2cccc([C@@H](CC(=O)O)C3CC3)c2)C1 (stereo partly drawn) [Example 59] | 439 | 777
4 | COc1cccc(C2CC2COc2cccc([C@@H](CC(=O)O)C3CC3)c2)c1 (single isomer, unassigned) [Example 63, (3 S)-3-cyclopropyl-3-(3-((2-(3-methoxyphenyl)cyclopropyl)methoxy)phenyl)propanoic acid] | 15 | 348
5 | CC(c1cc(C(F)(F)F)ccc1C1CC1)N1CC(COc2cccc([C@@H](CC(=O)O)C3CC3)c2)C1 (stereo partly drawn) [Example 58] | 113 | 366
6 | CC(c1cc(F)ccc1Cl)N1CC(COc2cccc([C@@H](CC(=O)O)C3CC3)c2)C1 (stereo partly drawn) [Example 51] | 58 | 449
7 | COc1ccc(F)cc1CN1CCC(COc2cccc([C@@H](CC(=O)O)C3CC3)c2)C1 (stereo partly drawn) [Example 20, (3S)-3-Cyclopropyl-3-(3-((1-(5-fluoro-2-methoxybenzyl)pyrrolidin-3-yl)methoxy)phenyl)propanoic acid] | 266 | 10000
8 | CC(c1cc(Cl)ccc1Cl)N1CC(COc2cccc([C@@H](CC(=O)O)C3CC3)c2)C1 (stereo partly drawn) [Example 56] | 23 | 347
9 | COc1ccc(F)cc1CN1CCC(Oc2cccc([C@@H](CC(=O)O)C3CC3)c2)C1 (stereo partly drawn) [Example 12, (3S)-3-Cyclopropyl-3-(3-((1-(5-fluoro-2-methoxybenzyl)pyrrolidin-3-yl)oxy)phenyl)propanoic acid] | 111 | 4660
10 | CC(Oc1cccc([C@H](C2CC2)[C@H](C)C(=O)O)c1)C1CN(Cc2cc(C(F)(F)F)ccc2C(F)(F)F)C1 (stereo partly drawn) [Example 9, (2S,3R)-3-(3-(1-(1-(2,5-Bis(trifluoromethyl)benzyl)azetidin-3-yl)ethoxy)phenyl)-3-cyclopropyl-2-methylpropanoic acid] | 4 | 217
11 | CC(c1cc(C(F)(F)F)ccc1C(F)(F)F)N1CC(COc2cccc([C@@H](CC(=O)O)C3CC3)c2)C1 (stereo partly drawn) [Example 54] | 0.6 | 27
12 | COc1ccc(F)cc1CN1CC(COc2cccc([C@@H](CC(=O)O)C3CC3)c2)C1 [Example 19, (S)-3-Cyclopropyl-3-(3-((1-(5-fluoro-2-methoxybenzyl)azetidin-3-yl)methoxy)-phenyl)propanoic acid] | 497 | 4780
13 | COc1cccc(C2CC2COc2cccc([C@@H](CC(=O)O)C3CC3)c2)c1 (stereo partly drawn) [Example 61, (3 S)-3-cyclopropyl-3-(3-((2-(3-methoxyphenyl)cyclopropyl)methoxy)phenyl)propanoic acid] | 24 | 651

The next lines start with the values.

Row | EC50 (Human GPR40 [1]) [nM] | EC50 (Human GPR40 [2]) [nM] | SMILES
14 | 359 | 3710 | O=C(O)C[C@H](c1cccc(OCCC2CN(Cc3cc(C(F)(F)F)ccc3C(F)(F)F)C2)c1)C1CC1 [Example 18, (S)-3-(3-(2-(1-(2,5-Bis(trifluoromethyl)benzyl)azetidin-3-yl)ethoxy)phenyl)-3-cyclopropylpropanoic acid]
15 | 94 | 1120 | O=C(O)C[C@H](c1cccc(OC2CCN(Cc3cc(C(F)(F)F)ccc3Cl)C2)c1)C1CC1 (stereo partly drawn) [Example 42]
16 | 231 | 952 | CC1(COc2cccc([C@@H](CC(=O)O)C3CC3)c2)CCN(Cc2cc(C(F)(F)F)ccc2C(F)(F)F)C1 (stereo partly drawn) [Example 43]
17 | 79 | 2080 | O=C(O)C[C@H](c1cccc(OC2CC3(C2)CN(Cc2cc(C(F)(F)F)ccc2C(F)(F)F)C3)c1)C1CC1 [Example 15, (S)-3-(3-((2-(2,5-Bis(trifluoromethyl)benzyl)-2-azaspiro[3.3]heptan-6-yl)oxy)phenyl)-3-cyclopropylpropanoic acid]
18 | 42 | 560 | O=C(O)C[C@H](c1cccc(OCC2CCN(Cc3cc(C(F)(F)F)ccc3C(F)(F)F)C2)c1)C1CC1 (stereo partly drawn) [Example 47]
19 | 2 | 89 | C[C@H](C(=O)O)[C@H](c1cccc(O[C@@H]2CCCN(Cc3cc(C(F)(F)F)ccc3C(F)(F)F)C2)c1)C1CC1 [Example 7, (2S,3R)-3-(3-(((R)-1-(2,5-bis(trifluoromethyl)benzyl)piperidin-3-yl)oxy)phenyl)-3-cyclopropyl-2-methylpropanoic acid]
20 | 7.4 | 524 | O=C(O)C[C@H](c1cccc(OC2CCCN(Cc3cc(C(F)(F)F)ccc3C(F)(F)F)C2)c1)C1CC1 (stereo partly drawn) [Example 24, (3S)-3-(3-((1-(2,5-Bis(trifluoromethyl)benzyl)piperidin-3-yl)oxy)phenyl)-3-cyclopropylpropanoic acid]
21 | 51 | 711 | C[C@H](C(=O)O)[C@H](c1cccc(O[C@H]2CCCN(Cc3cc(C(F)(F)F)ccc3C(F)(F)F)C2)c1)C1CC1 [Example 29]
22 | 126 | 8380 | O=C(O)C[C@H](c1cccc(OCC2CCCCN2Cc2cc(C(F)(F)F)ccc2C(F)(F)F)c1)C1CC1 (stereo partly drawn) [Example 3, (3S)-3-(3-((1-(2,5-Bis(trifluoromethyl)benzyl)piperidin-2-yl)methoxy)phenyl)-3-cyclopropylpropanoic acid]
23 | 15 | 866 | O=C(O)C[C@H](c1cccc(OC2CC3CN(Cc4cc(C(F)(F)F)ccc4C(F)(F)F)CC3C2)c1)C1CC1 (stereo partly drawn) [Example 8, (3S)-3-(3-((2-(2,5-bis(trifluoromethyl)benzyl)octahydrocyclopenta[c]pyrrol-5-yl)oxy)phenyl)-3-cyclopropylpropanoic acid]
24 | 1.4 | 79 | C[C@H](C(=O)O)[C@H](c1cccc(OCC2CN(Cc3cc(C(F)(F)F)ccc3C(F)(F)F)C2)c1)C1CC1 [Example 25, (2S,3R)-3-(3-((1-(2,5-Bis(trifluoromethyl)benzyl)azetidin-3-yl)methoxy)phenyl)-3-cyclopropyl-2-methylpropanoic acid]
25 | 173 | 1830 | O=C(O)C[C@H](c1cccc(OCCC2CCN(Cc3cc(C(F)(F)F)ccc3C(F)(F)F)C2)c1)C1CC1 (stereo partly drawn) [Example 2, (3S)-3-(3-(2-(1-(2,5-Bis(trifluoromethyl)benzyl)pyrrolidin-3-yl)ethoxy)phenyl)-3-cyclopropylpropanoic acid]
26 | 1.9 | 89 | C[C@H](C(=O)O)[C@H](c1cccc(O[C@H]2CCCN(Cc3cc(C(F)(F)F)ccc3C(F)(F)F)C2)c1)C1CC1 [Example 1, (2S,3R)-3-(3-(((S)-1-(2,5-bis(trifluoromethyl)benzyl)piperidin-3-yl)oxy)phenyl)-3-cyclopropyl-2-methylpropanoic acid]
27 | 129 | 1850 | O=C(O)C[C@H](c1cccc(OCC2CCN(c3cc(C(F)(F)F)ccc3C(F)(F)F)C2)c1)C1CC1 (stereo partly drawn) [Example 13, (3S)-3-(3-((1-(2,5-Bis(trifluoromethyl)phenyl)pyrrolidin-3-yl)methoxy)phenyl)-3-cyclopropylpropanoic acid]
